IC50 data for twelve compounds are collected here from US20120115895A1, “TRICYCLIC INDOLE-DERIVED SPIRO DERIVATIVES AS CRTH2 MODULATORS” (Merck Serono S.A., priority 2009, published 2012).

pIC50: −log10 of the molar value.

This experiment deals with T1, CRTH2 (Homo sapiens, UniProt Q9Y5Y4).
T1 sequence (Q9Y5Y4 1-395): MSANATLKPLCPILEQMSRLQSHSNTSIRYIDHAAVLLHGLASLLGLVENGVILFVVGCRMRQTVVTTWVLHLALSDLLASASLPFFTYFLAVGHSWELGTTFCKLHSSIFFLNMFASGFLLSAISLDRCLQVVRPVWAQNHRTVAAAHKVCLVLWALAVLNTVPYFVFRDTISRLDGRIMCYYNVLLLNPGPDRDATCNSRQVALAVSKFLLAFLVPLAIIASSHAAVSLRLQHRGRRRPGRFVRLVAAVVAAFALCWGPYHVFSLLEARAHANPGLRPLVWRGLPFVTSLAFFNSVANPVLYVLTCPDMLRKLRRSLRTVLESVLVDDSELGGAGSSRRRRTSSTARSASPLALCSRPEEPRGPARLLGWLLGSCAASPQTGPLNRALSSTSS
Briefly: Radioligand binding Scintillation Proximity Assay ([3H]PGD2, hCRTH2-CHO cell membranes). More on the design: host or cells: CHO cells. The settings on record: 1.5 nM [3H]PGD2, hCRTH2-CHO membranes, SPA; read-out: IC50 binding. Here is the method:
Adherent CHO cells expressing hCRTH2 (Euroscreen, Belgium) were cultured in 225 cm2 cell culture flasks (Corning, USA) in 30 ml of medium. After two rinses of phosphate buffered saline (PBS), cells were harvested in 10 ml of PBS containing 1 mM EDTA, centrifuged at 500×g for 5 min at 4° C. and frozen at −80° C. The pellet was re-suspended in 50 mM Tris-HCl, pH 7.4, 2 mM EDTA, 250 mM Sucrose, containing protease inhibitor cocktail tablets, (Complete EDTA-free, Roche, Germany) and incubated 30 min at 4° C. Cells were disrupted by nitrogen cavitation (Parr Instruments, USA) at 4° C. (800 p.s.i. for 30 min), and centrifuged at 500×g for 10 min at 4° C. Pellet containing nuclei and cellular debris was discarded and supernatant was centrifuged 60 min at 4° C. at 45000×g. Membrane pellet was re-suspended in storage buffer (10 mM HEPES/KOH pH 7.4, 1 mM EDTA, 250 mM sucrose, protease inhibitor cocktail tablets) using Dounce homogenization and frozen in liquid nitrogen, and stored at −80° C.
The inhibitory activity can be investigated by a radioligand binding Scintillation Proximity Assay (SPA) (Sawyer et al., Br. J. Pharmocol 2002, 137, 1163-72). The SPA radioligand binding assay was performed at room temperature in binding buffer (10 mM HEPES/KOH pH 7.4, 10 mM MnC12, with protease inhibitor cocktail tablets), containing 1.5 nM [3H]PGD2 (Perkin Elmer), 10-50 μg/ml of hCRTH2—CHO cell membrane protein and 2 mg/ml of Wheat-germ agglutinin Scintillation Proximity Assay beads (RPNQ0001, GE-Healthcare) in a final volume of 100 μl in 96 well plates (Corning, USA). Non-specific binding was determined in the presence of 10 μM PGD2 (Cayman, USA). Competing Compounds of Formula (I) were diluted in dimethylsulphoxide so that the total volume of dimethylsulfoxide was kept constant at 1% dimethylsulphoxide (Me2SO). Serial dilutions of 100 μM to 100 pM were prepared and 10 μl each of the compounds of Formula (I) stock solutions were added to the binding assay reagents and incubated for 90 min with agitation at room temperature. Binding activity was determined by using a 1450 Micro-beta scintillation counter (Wallac, UK).
On the technique in general: Scintillation proximity formats need no separation of bound from free tracer.
Regarding `CN1C(=O)N(Cc2cc(F)ccc2F)C(=O)C12C(=O)N(CC(=O)O)c1ccc(Cl)cc12` (stereo not drawn) [Example 10, [5′-chloro-1-(2,5-difluorobenzyl)-3-methyl-2,2′,5-trioxospiro[imidazolidine-4,3′-indol]-1′(2′H)-yl]acetic acid], the negative-log IC50 (pIC50) – broadly, the negative decadic logarithm of the IC50, by convention in mol/L – was 6.30. Take `CN1C(=O)N(CCc2cccc(Cl)c2)C(=O)C12C(=O)N(CC(=O)O)c1ccc(Cl)cc12` (stereo not drawn) [Example 15, [15′-chloro-1-[2-(3-chlorophenyl)ethyl]-3-methyl-2,2′,5-trioxospiro[imidazolidine-4,3′-indol]-1′(2′H)-yl]acetic acid]: the pIC50 is 6.26. `CCN1C(=O)N(Cc2cc(Cl)ccc2F)C(=O)C12C(=O)N(CC(=O)O)c1ccc(Cl)cc12` (single isomer, unassigned; (+)) [Example 3, [(+)-5′-chloro-1-(5-chloro-2-fluorobenzyl)-3-ethyl-2,2′,5-trioxospiro[imidazolidine-4,3′-indol]-1′(2′H)-yl]acetic acid]: the pIC50 is 6.47. As for `CN1C(=O)N(Cc2cc(Cl)ccc2F)C(=O)C12C(=O)N(CC(=O)O)c1ccc(Cl)cc12` (stereo not drawn) [Example 1, [5′-chloro-1-(5-chloro-2-fluorobenzyl)-3-methyl-2,2′,5-trioxospiro[imidazolidine-4,3′-indol]-1′(2′H)-yl]acetic acid], the negative-log IC50 (pIC50) is 7.21.

In the case of `CC(C)c1nc(CN2C(=O)N(C)C3(C2=O)C(=O)N(CC(=O)O)c2ccc(Cl)cc23)cs1` (stereo not drawn) [Example 5, [5′-chloro-1-[(2-isopropyl-1,3-thiazol-4-yl)methyl]-3-methyl-2,2′,5-trioxospiro[imidazolidine-4,3′-indol]-1′(2′H)-yl]acetic acid], the negative-log IC50 (pIC50) was 6.20. Consider `CN1C(=O)N(Cc2csc(-c3ccccc3)n2)C(=O)C12C(=O)N(CC(=O)O)c1ccc(Cl)cc12` (stereo not drawn) [Example 8, [5′-chloro-3-methyl-2,2′,5-trioxo-1-[(2-phenyl-1,3-thiazol-4-yl)methyl] Spiro[imidazolidine-4,3′-indol]-1′(2′H)-yl]acetic acid], for which the negative logarithm of the IC50 (pIC50) is 7.36. For `CN1C(=O)N(CCc2ccccc2F)C(=O)C12C(=O)N(CC(=O)O)c1ccc(Cl)cc12` (stereo not drawn) [Example 14, [15′-chloro-1-[2-(2-fluorophenyl)ethyl]-3-methyl-2,2′,5-trioxospiro[imidazolidine-4,3′-indol]-1′(2′H)-yl]acetic acid], the pIC50 was 6.03. With `CN1C(=O)N(CCc2ccccc2Cl)C(=O)C12C(=O)N(CC(=O)O)c1ccc(Cl)cc12` (stereo not drawn) [Example 12, [5′-chloro-1-[2-(2-chlorophenyl)ethyl]-3-methyl-2,2′,5-trioxospiro[imidazolidine-4,3′-indol]-1′(2′H)-yl]acetic acid], the pIC50 was 6.13. The result for `Cc1onc(-c2ccccc2)c1CN1C(=O)N(C)C2(C1=O)C(=O)N(CC(=O)O)c1ccc(Cl)cc12` (stereo not drawn) [Example 7, [5′-chloro-3-methyl-1-[(5-methyl-3-phenylisoxazol-4-yl)methyl]-2,2′,5-trioxospiro[imidazolidine-4,3′-indol]-1′(2′H)-yl]acetic acid] reads 6.83.

With `CCCN1C(=O)N(Cc2cc(Cl)ccc2F)C(=O)C12C(=O)N(CC(=O)O)c1ccc(Cl)cc12` (single isomer, unassigned) [Example 4], the pIC50 was 6.84. As for `CN1C(=O)N(Cc2cn(-c3ccccc3)nc2-c2ccccc2)C(=O)C12C(=O)N(CC(=O)O)c1ccc(Cl)cc12` (stereo not drawn) [Example 6, [5′-chloro-1-[(1,3-diphenyl-1H-pyrazol-4-yl)methyl]-3-methyl-2,2′,5-trioxospiro[imidazolidine-4,3′-indol]1′(2′H)-yl]acetic acid], the negative-log IC50 (pIC50) is 6.91.

Take `COc1c(C)cnc(CN2C(=O)N(C)C3(C2=O)C(=O)N(CC(=O)O)c2ccc(Cl)cc23)c1C` (stereo not drawn) [Example 9, [5′-chloro-1-[(4-methoxy-3,5-dimethylpyridin-2-yl)methyl]-3-methyl-2,2′,5-trioxospiro[imidazolidine-4,3′-indol]-1′(2′H)-yl]acetic acid]: the pIC50 is 6.44.
